Measurements taken from patent US12389911B2, “Benzimidazole compound or salt thereof, agricultural and horticultural insecticidal and acaricidal agent containing said compound, and method for using same” (NIHON NOHYAKU CO., LTD., priority 2019, dated 2025).

Test system: Two-spotted spider mite (Tetranychus urticae)
Assay: Acaricidal action on two-spotted spider mite (kidney bean leaf disk spray)
Format: in vivo
Conditions: 500 ppm, adult females, 25° C., two days after treatment
Description: Acaricidal Action on Two-Spotted Spider Mite (Tetranychus urticae)
Leaf disk having a diameter of 2 cm was prepared by leaves of kidney bean, and the leaf disk was placed on the wetted filter paper. Adult hens of two-spotted spider mite were inoculated on the wetted filter paper, and then 50 ml of an agrochemical dispersion, prepared by diluting a formulation containing the benzimidazole compound represented by the general formula (1) of the present invention or salt thereof as an active ingredient to adjust each of the concentrations to 500 ppm, was sprayed on turntable uniformly. After the spraying, it was allowed to stand in a thermostatic chamber at 25° C. Two days after the treatment of an agrochemical dispersion, the dead mites were counted, the corrected mortality rate was calculated according to the formula shown below, and the acaricidal efficacy was evaluated according to the criteria of Test Example 2. This test was conducted in duplicate using 10 adult hens of two-spotted spider per plot. Corrected mortality(%)=(Number of dead mites in a non-treatment plot−Number of dead mites in a treatment plot)/(Number of dead mites in a non-treatment plot)×100 [Expression 4]

Compound | acaricidal efficacy (corrected mortality rate), activity level
CCS(=O)(=O)n1c(-n2cc(C(=O)OC(C)(C)C)c(C#CC(C)(C)C)n2)nc2ccccc21 [Compound 2-145] | D or higher
CCCCCc1nn(-c2nc3ccccc3n2S(=O)(=O)CC)cc1C(=O)OC(C)(C)C [Compound 2-85] | D or higher
CCS(=O)(=O)n1c(-n2cc(Br)c(C(F)(F)F)n2)nc2ccccc21 [Compound 2-14] | D or higher
CCS(=O)(=O)n1c(-n2cc(C#CC(C)(C)C)c(C(=O)OC(C)(C)C)n2)nc2ccccc21 [Compound 2-133] | D or higher
CCOC(=O)c1cn(-c2nc3ccccc3n2S(=O)(=O)CC)nc1OCC(F)(F)C(F)(F)F [Compound 2-41] | D or higher
CCS(=O)(=O)n1c(-n2cnc(C(=O)OC(C)(C)c3ccccc3)c2)nc2ccccc21 [Compound 1-36] | D or higher
CCS(=O)(=O)n1c(-n2cc(C(=O)OC(C)(C)C)c(C(=O)OC(C)(C)C)n2)nc2ccccc21 [Compound 2-62] | D or higher
CCS(=O)(=O)n1c(-n2cc(CCc3ccc(F)cc3)c(C(F)(F)F)n2)nc2ccccc21 [Compound 2-5] | D or higher
CCS(=O)(=O)n1c(-n2cc(C(=O)OC(C)(C)C)c(I)n2)nc2ccccc21 [Compound 2-82] | D or higher
CCS(=O)(=O)n1c(-n2cc(C#N)c(C(C)(C)C)n2)nc2ccccc21 [Compound 2-99] | D or higher
CCS(=O)(=O)n1c(-n2cc(/C=C/C(=O)NCC(F)(F)F)c(C(F)(F)F)n2)nc2ccccc21 [Compound 2-117] | D or higher
CCS(=O)(=O)n1c(-n2cc(Br)c(C(=O)OC(C)(C)C)n2)nc2ccccc21 [Compound 2-45] | D or higher
CCCCCCCCc1cnn(-c2nc3ccccc3n2S(=O)(=O)CC)c1 [Compound 2-2] | D or higher
CCS(=O)(=O)n1c(-n2cc(C(=O)OC)c(C(=O)OC)c2)nc2ccccc21 [Compound 7-6] | D or higher
CCCCCCCCc1cn(-c2nc3ccccc3n2S(C)(=O)=O)cn1 [Compound 1-3] | D or higher
CCS(=O)(=O)n1c(-n2cc(C(=O)OC(C)(C)C)c(OCC(F)(F)C(F)F)n2)nc2ccccc21 [Compound 2-78] | D or higher
CCS(=O)(=O)n1c(-n2cnc(I)c2)nc2ccccc21 [Compound 1-20] | D or higher
CCS(=O)(=O)n1c(-n2cc(SCc3ccc(C(C)(C)C)cc3)c(C(F)(F)F)n2)nc2ccccc21 [Compound 2-121] | D or higher
CCS(=O)(=O)n1c(-n2cc(CCc3ccccc3)c(C(=O)OC(C)(C)C)n2)nc2ccccc21 [Compound 2-107] | D or higher
C#Cc1cn(-c2nc3ccccc3n2S(=O)(=O)CC)nc1C(F)(F)F [Compound 2-110] | D or higher
CCS(=O)(=O)n1c(-n2cnc(C(F)(F)F)c2)nc2ccccc21 [Compound 1-21] | D or higher

Compound | acaricidal efficacy (corrected mortality rate), activity level
CCS(=O)(=O)n1c(-n2cc(SCC(F)(F)C(F)(F)F)cn2)nc2ccccc21 [Compound 2-141] | D or higher
CCOC(=O)/C=C/c1nn(-c2nc3ccccc3n2S(=O)(=O)CC)cc1C(=O)OCC [Compound 2-143] | D or higher
CCS(=O)(=O)n1c(-n2cc(I)c(C(=O)OC(C)(C)C)n2)nc2ccccc21 [Compound 2-104] | D or higher
CCS(=O)(=O)n1c(-n2cc(C(=O)OC)c(C(C)(C)C)n2)nc2ccccc21 [Compound 2-79] | D or higher
CCS(=O)(=O)n1c(-n2cc(/C=C/C(=O)OC(C)(C)C)c(C(=O)OC(C)(C)C)n2)nc2ccccc21 [Compound 2-130] | D or higher
CCS(=O)(=O)n1c(-n2cc(C#Cc3ccc(F)cc3)c(C(F)(F)F)n2)nc2ccccc21 [Compound 2-9] | D or higher
CCS(=O)(=O)n1c(-n2cc(C#CC3CC3)c(C(F)(F)F)n2)nc2ccccc21 [Compound 2-123] | D or higher
CCS(=O)(=O)n1c(-n2cnc(C#CC3CC3)c2)nc2ccccc21 [Compound 1-7] | D or higher
CCS(=O)(=O)n1c(-n2cc(C(=O)NC3CC3)c(C(C)(C)C)n2)nc2ccccc21 [Compound 2-96] | D or higher
CCS(=O)(=O)n1c(-n2cc(C(=O)OC(C)(C)C)c(/C=C/C(=O)OC(C)(C)C)n2)nc2ccccc21 [Compound 2-144] | D or higher
CCS(=O)(=O)n1c(-n2cc(I)c(Br)n2)nc2ccccc21 [Compound 2-35] | D or higher
CCS(=O)(=O)n1c(-n2cc(CCc3ccc(OC)cc3)c(C(F)(F)F)n2)nc2ccccc21 [Compound 2-6] | D or higher
CCS(=O)(=O)n1c(-n2cc(C(=O)OC(C(F)(F)F)C(F)(F)F)cn2)nc2ccccc21 [Compound 2-93] | D or higher
CCS(=O)(=O)n1c(-n2cc(C#Cc3ccccn3)c(C(F)(F)F)n2)nc2ccccc21 [Compound 2-118] | D or higher
CCCCCc1cn(-c2nc3ccccc3n2S(=O)(=O)CC)cn1 [Compound 1-2] | D or higher
CCS(=O)(=O)n1c(-n2cc(C(=O)OC(C)(C)C)c(OCC(F)(F)F)n2)nc2ccccc21 [Compound 2-76] | D or higher
CCS(=O)(=O)n1c(-n2cc(C3CC3)c(C(=O)OC(C)(C)C)n2)nc2ccccc21 [Compound 2-105] | D or higher
CCS(=O)(=O)n1c(-n2cc(C(=O)N(C)C(C)(C)C)c(C(=O)N(C)C(C)(C)C)n2)nc2ccccc21 [Compound 2-98] | D or higher
CCS(=O)(=O)n1c(-n2cc(C#CCOCC(F)(F)F)c(C(F)(F)F)n2)nc2ccccc21 [Compound 2-138] | D or higher
CCS(=O)(=O)n1c(-n2cc(C#CCOC)c(C(F)(F)F)n2)nc2ccccc21 [Compound 2-128] | D or higher
